Source: patent US20200329698A1, “COMPOSITIONS FOR ORGAN GRAFT PRESERVATION AND METHODS OF USE” (Nobilis Therapeutics, Inc., priority 2019, published 2020)

Test system: Lewis rat lung grafts extracted after cardiac death
Method: Inbred adult male Lewis rats (LEW, RT1^1) weighing 225-250 g were purchased from Harlan, UK and bred in temperature- and humidity-controlled cages in a specific pathogen-free facility at the Chelsea-Westminster Campus, Imperial College London. All animal procedures were carried out in accordance with the United Kingdom Animals (Scientific Procedures) Act of 1986. For cardiac arrest model (DCD donor) in anaesthetized rats, anticoagulation was accomplished by injecting 250 U Heparin in 1 ml saline via the penile vein. Five minutes after heparinization, a laparotomy was performed through a midline incision. A thoracotomy was performed followed by induction of cardiac arrest by external compression of the heart for 5 min. After induction of cardiac arrest, the aorta was closed using a vascular clamp rostral from the heart. The thoracotomy wound was covered with gauze and kept moist with 0.9% NaCl. After 40 minutes in DCD donors, the entire graft, lung or kidney, in the donor was isolated and excised. Lung grafts were flushed through the main pulmonary artery and stored at 4° C. for 16 hours with either control UW solution or UW with Dex (0.1 nM) solution. Lung or kidney grafts were fixed in 4% parafamydehyde and paraffin. Sections of 5-μm thickness were taken from the kidney specimens and haematoxylin & eosin (H&E) staining was carried out. Lung cell morphology in each graft (10 fields in the cortex at ×20 magnifications) was evaluated by an observer blinded to the treatment using an OLYMPUS™ (Watford, UK) BX4 microscope under constant exposure level. The score for each field was calculated from the sum score of 10 areas chosen at a random. For the lung sections, the injury was categorised into Grade 0: normal appearance, negligible damage; Grade 1: mild moderate interstitial congestion and neutrophil leukocyte infiltrations; Grade 2: perivascular oedema formation, partial destruction of pulmonary architecture and moderate cell infiltration; Grade 3: moderate lung alveolar damage and intensive cell infiltration; Grade 4: severe cell infiltration and severe destruction of the pulmonary architecture. For in vivo fluorescence or DAB staining, 25-μm frozen lung sections were incubated with rabbit anti-Rip1 (1:200, SANTA CRUZ BIOTECHNOLOGY®), rabbit anti-Rip3 (1:200, SANTA CRUZ BIOTECHNOLOGY®), mouse anti-HMGB-1 (1:200, Abcam), Goat anti-TLR-4 (1:200, SANTA CRUZ BIOTECHNOLOGY®), rabbit anti-Nrf-2 (1:200, SANTA CRUZ BIOTECHNOLOGY®), mouse anti-SOD-1 (1:200, Abcam), mouse anti-NQO-1 (1:200 Abcam), rabbit anti-3-nitrotyrosine (1:200, Abcam) and rabbit anti-4-hydroxynonenal (1:200, Abcam) at 4° C. overnight. After washing with PBST, the slides were incubated with fluorochrome-conjugated secondary antibodies (MILLIPORE™, UK). For double-labelled immunofluorescence, lung samples were incubated with the first primary antibody overnight, followed by the first secondary antibody, and then the second primary antibody and the second secondary antibody. The slides were counterstained with nuclear dye DAPI and mounted with […]® Mounting Medium (Vector lab, USA). Sections were examined using an OLYMPUS™ (Watford, UK) BX4 microscope under constant exposure level. Immunofluorescence was quantified using ImageJ (National Institutes of Health, Maryland, USA) and the background was subtracted. Ten representative regions per section (in vivo) or field (in vitro) were randomly selected by an assessor blinded to the treatment groups. Values were then calculated as percentages of the mean value for naïve controls and expressed as percentage fluorescence intensity. Lung alveolar cell death was detected by the in situ TUNEL assay (MILLIPORE™) according to the manufacturer's instructions. TUNEL nuclei were visualized by green FITC fluorescence. Tumor necrosis factor-α (TNF-α) in the culture medium were detected by ELISA (Human TNF-α ELISA kits, INVITROGEN®, UK). Rat lung tissue and serum TNF-α were measured by ELISA (Rat TNF-α ELISA kits, INVITROGEN®, UK). […]

[1] = Dex 0.1 nM in UW at 4° C., CI 16 hr, vs vehicle
[2] = Dex-saturated UW, CI 16 h, p<0.001
[3] = Dex-saturated UW, CI 16 h, p<0.05

SMILES: Cc1cccc([C@H](C)c2cnc[nH]2)c1C [Dexmedetomidine]
- HMGB-1 release [1]: reduction
- TLR-4 activation (fluorescent intensity) [1]: reduction
- cell death (TUNEL staining) [1]: reduced cell death
- concentration of HMGB-1 in lung graft tissue (ELISA) [1]: significantly reduced
- concentration of IL-1β in lung graft tissue (ELISA) [1]: significantly reduced
- concentration of TNF-α in lung graft tissue (ELISA) [1]: significantly reduced
- expression of necroptosis marker RIP1 (fluorescent intensity) [1]: significantly reduced
- expression of necroptosis marker RIPS (RIPK3 fluorescent intensity) [1]: significantly reduced
- lung morphology (H&E, lung injury scoring) [1]: marked improvement in morphology
- expression of 3-nitrotyrosine (fluorescent intensity) (Dex-saturated UW, CI 16 h, vs control group, p<0.001): significant reduction
- expression of 4-hydroxynonenal (fluorescent intensity) (Dex-saturated UW, CI 16 h, vs control group, p<0.05): significant reduction
- expression of Nrf-2 (fluorescent intensity) [2]: significant increase
- expression of SOD-1 (fluorescent intensity) [2]: significant increase
- lung tissue GSH/GSSG ratio [2]: significant increase
- lung tissue GSSG level (Dex-saturated UW, CI 16 h, p<0.01): significant decrease
- expression of NQO-1 (fluorescent intensity) [3]: significant increase
- lung tissue GSH level [3]: significant increase
